Assay results from US20240100193A1, “Self-complementary AAV vectors carrying dominant negative RhoA and methods of use to treat ocular diseases” (iView Therapeutics, Inc., priority 2022, published 2024).

System: ROCK
Assay: ROCK Activity Assay Kit on HTM cell lysates treated with ROCK activator or inhibitor
Assay type: biochemical, human
Conditions: for relative ROCK activity normalized to the no drug treated cell lysate: HTM cell lysate
Experimental: The ROCK Activity Assay Kit is an enzyme immunoassay developed for detection of the specific phosphorylation of MYPT1 at Thr696 by ROCK. A strip-well microtiter plate is precoated with a recombinant MYPT1. After incubating the substrate wells with ROCK samples, the phosphorylated MYPT1 is detected by an anti-phospho-MYPT1 (Thr696) antibody.
Human trabecular meshwork cells were seeded into 12-well plates at the density of 500,000 cells per well. 48 hours after seeding, cells were harvested with cell lysis buffer. Cell lysates were treated with ROCK activator or ROCK inhibitor before incubating with precoated strip-wells. The ROCK activity was then measured with the protocol of the kit. Three chemicals were used to activate ROCK: S1P (Sphingosine-1 phosphate at 1 μM), LPA (Oleoyl L-lysophosphatidic acid at 10 μM) and DMOG (Dimethyloxalylglycine at 0.5 mM). […] Data was presented as relative ROCK activity normalized to the no drug treated cell lysate.

Molecule: Oleoyl L-lysophosphatidic acid [LPA]
- rank among the chemical ROCK activators (LPA 10 μM compared with S1P 1 μM and DMOG 0.5 mM): most potent activator
- relative ROCK activity normalized to the no drug treated cell lysate (LPA at 10 μM): increased

Molecule: CCCCCCCCCCCCC/C=C/[C@@H](O)[C@@H](N)COP(=O)(O)O [S1P, Sphingosine-1 phosphate]
- relative ROCK activity normalized to the no drug treated cell lysate (S1P at 1 μM): increased

Molecule: COC(=O)CNC(=O)C(=O)OC [DMOG, Dimethyloxalylglycine]
- relative ROCK activity normalized to the no drug treated cell lysate (DMOG at 0.5 mM): increased

Molecule: C[C@@H](N)[C@H]1CC[C@H](C(=O)Nc2ccncc2)CC1 [Y-27632]
- relative ROCK activity normalized to the no drug treated cell lysate (Y-27632 at 50 μM): decreased
